Here are results for 14 compounds from patent publication US8895514B2, “Composition of tumor-associated peptides and related anti-cancer vaccine for the treatment of glioblastoma (GBM) and other cancers” (Immatics Biotechnologies GmbH, priority 2008, dated 2014).

Where no end group is shown, it is not given here.

For assay [1], the system named is CD8+ T cells. Kind of assay: In vitro priming of CD8+ T cells with pMHC/anti-CD28 coated beads, tetramer readout. In kind it is cell-based, human. The note with it: for Positive donors/donors tested / Positive wells/wells tested: healthy donors, CD8+ cells stimulated with high density beads. The method, then:
To perform in vitro stimulations by artificial antigen presenting cells (aAPC) loaded with peptide-MHC complex (pMHC) and anti-CD28 antibody, first we isolated PBMCs (peripheral blood mononuclear cells) from fresh HLA-A*02+ buffy coats by using standard density gradient separation medium (PAA, Cölbe, Germany). Buffy coats were either obtained from the Blood Bank Tübingen or from the Katharinenhospital Stuttgart. Isolated PBMCs were incubated overnight in T-cell medium (TCM) for human in vitro priming consisting of RPMI-Glutamax (Invitrogen, Karlsruhe, Germany) supplemented with 10% heat inactivated human AB serum (PAA, Cölbe, Germany), 100 U/ml Penicillin/100 μg/ml Streptomycin (Cambrex, Verviers, Belgium), 1 mM sodium pyruvate (CC Pro, Neustadt, Germany) and 20 μg/ml Gentamycin (Cambrex). CD8+ lymphocytes were isolated using the CD8+ MACS positive selection kit (Miltenyi, Bergisch Gladbach, Germany) according to the manufacturer's instructions.
800.000 beads/200 μl were coated in 96-well plates in the presence of 600 ng biotin anti-CD28 plus 200 ng relevant biotin-pMHC (high density beads) or 2 ng relevant plus 200 ng irrelevant (pMHC library) MHC (low density beads). Stimulations were initiated in 96-well plates by co-incubating 1×10^6 CD8+ T cells with 2×10^5 washed coated beads in 200 μl TCM supplemented with 5 ng/ml IL-12 (PromoCell) for 3-4 days at 37° C. Half of the medium was then exchanged by fresh TCM supplemented with 80 U/ml IL-2 and incubating was continued for 3-4 days at 37° C. This stimulation cycle was performed for a total of three times.
Results shown have been obtained by stimulation of CD8+ cells with high density beads. As different human serum lots may highly affect the immunogenicity results, only assays in which one and the same serum lot was used, were evaluated together.

Assay [2] relates to CD8+ T cells. The description is as above. The note with it: small number of glioblastoma patients. In kind it is cell-based, human.
For assay [3] the following is noted: out of 18 patients treated, recurrent GBM, intermediate results; cited from earlier work.
The target of another assay is HLA-A*0201 (Homo sapiens, UniProt P04439, /I218V/L300P/L318F/N151K/N90K/P208A/P217A/Q86G/Q94H/R138H/R169H/T345S). The assay can be described thus: ELISA-based MHC refolding assay. The format is binding. How it is done:
The amount of de novo-folded HLA/peptide complexes was determined by a quantitative ELISA. Dissociation constants (KD values) were calculated using a standard curve recorded from dilutions of a calibrant HLA/peptide complex.
Background: In an ELISA, binding on a coated surface is turned into a signal by an enzyme label.

Another assay concerns anti-survivin T cells. The assay can be described thus: Phase I/II vaccination study, T-cell response to Survivin peptide (IFN-g ELISPOT, +/-ICS). In kind it is in vivo, human.
Assay [4] relates to HLA-DR broad antigens (HLA-DR1 to DR7). Kind of assay: ProImmune REVEAL MHC:peptide binding assay. Details: species or system human. The note with it: relative to pass/fail control; MET-005 tested as two overlapping 15-mers. The method, then:
The ProImmune REVEAL™ technology employs in vitro HLA-DR assembly assays to determine the on-rates for the MHC:peptide complex as one major determinant of the binding constant of individual peptides. The assay was performed by ProImmune (Oxford, UK). At a fixed time point, the amount of intact MHC:peptide complexes is measured and compared with the amount for a pass/fail control (relative weak binder). A strong, promiscuous HLA-DR binder is included as positive control. Values indicate amount of binding for the individual peptides and HLA-DR molecules relative to the pass/fail control.
In this assay, binding was compared to that of a pass/fail control binder, and to a positive control peptide for each HLA-DR antigen.

In the case of “LTFGDVVAV (listed as Homo sapiens) [FABP7-001]”, in the assay with CD8+ T cells [1], the Positive donors/donors tested was found to be 100% and the Positive wells/wells tested came out at 27%.

Turning to “SLWAGVVVL (listed as Homo sapiens) [CHI-001]”, in the assay with CD8+ T cells [1], the Positive donors/donors tested is on record as 100% and the Positive wells/wells tested is reported as 63%. In the assay with CD8+ T cells [2], the “in vitro immunogenicity in glioblastoma patients” value (shortened to “in vitro immunogenicity”) is given as “immunogenic to a similar extent compared with healthy donors”.

With “AMG102: human neutralizing antibody against HGF”, in assay [3], the “patients with minor response” value is given as 1 and the “patients with partial response” value was 1.

On to “AMTQLLAGV (listed as Homo sapiens) [TNC-001]”, for which, in the assay on CD8+ T cells [1], the Positive donors/donors tested is 60% and the Positive wells/wells tested is on record as 30%.

What is called Kd is the concentration at which binding is half-saturated. `CSCC[C@H](NC(=O)[C@@H](N)[C@@H](C)O)C(=O)N[C@@H](CC(C)C)C(=O)N[C@@H](C)C(=O)N[C@@H](CCCNC(=N)N)C(=O)N[C@@H](CC(C)C)C(=O)N[C@@H](C)C(=O)N[C@@H](CO)C(=O)N[C@@H](C)C(=O)O` [CSP-001]: the Kd on HLA-A*0201 (recombinant HLA-A*0201 with b2m, quantitative ELISA, read-out: Dissociation constant (KD) to HLA-A*0201) came to 2.05 nM. In the assay on CD8+ T cells [1], this compound displayed a Positive donors/donors tested of 100% and a Positive wells/wells tested of 57%.

As to “ALWAWPSEL (listed as Homo sapiens) [BCA-002]”, in the assay on CD8+ T cells [1], the “immunogenicity in comparison to another BCAN-derived peptide (IMA-BCA-001)” value was “very immunogenic”, the Positive donors/donors tested was 75% and the Positive wells/wells tested is 35%. Moreover, the “in vitro immunogenicity” value in the assay with CD8+ T cells [2] was “immunogenic to a similar extent compared with healthy donors”.

For the compound “KVFAGIPTV (listed as Homo sapiens) [PTP-005]”, in the assay on CD8+ T cells [1], the Positive donors/donors tested was 100% and the Positive wells/wells tested is on record as 52%.

Regarding YVDPVITSI [MET-001], in the assay with CD8+ T cells [1], the Positive donors/donors tested worked out at 67% and the Positive wells/wells tested came to 39%.

Turning to “TLGEFLKLDRERAKN (listed as Homo sapiens) [BIR-002]”, in the assay on anti-survivin T cells (among the 16 reacting patients), the “patients with induction of an anti-survivin T-cell response upon vaccination” value is listed as 12 and the “patients with pre existing anti-Survivin T cells” value is given as 2. In the assay on anti-survivin T cells (in vivo), the “immunogenicity in clinical trial in prostate cancer patients with different HLA-DR alleles” value was “broad immunogenicity”. Also, in the assay on anti-survivin T cells (of the 19 patients vaccinated, prostate carcinoma), the “patients who reacted to the peptide (IFN-g ELISPOT, +/-ICS)” value came out at 16. For the same compound, the “HLA-DR antigens for which in vitro binding was obtained” value in assay [4] is “HLA-DR1, 3, 4 and 11”.

In the case of “TFSYVDPVITSISPKYG (listed as Homo sapiens) [MET-005, MET-derived elongated HLA class I TUMAP]”, the “HLA class I binding of the full-length elongated peptide” value with HLA-A*0201 was “does not possess HLA class I binding capacities”. Also, in assay [4], the “HLA-DR antigens for which in vitro binding was obtained” value was “HLA-DR11”.

In the assay on CD8+ T cells [1], “NLDTLMTYV (listed as Homo sapiens) [NLGN4X-001]” showed a Positive donors/donors tested of 100% and a Positive wells/wells tested of 62%. Also, the “in vitro immunogenicity” value with CD8+ T cells [2] is reported as “immunogenic to a similar extent compared with healthy donors”.

Consider “KIQEILTQV (listed as Homo sapiens) [IGF2BP3-001]”, for which, in the assay with CD8+ T cells [1], the Positive donors/donors tested is 50% and the Positive wells/wells tested is listed as 21%.

In the assay on CD8+ T cells [1], “AIIDGVESV (listed as Homo sapiens) [PTP-003]” returned a Positive donors/donors tested of 50% and a Positive wells/wells tested of 17%.

For “GLWHHQTEV (listed as Homo sapiens) [NRCAM-001]”, in the assay on CD8+ T cells [1], the Positive donors/donors tested was determined as 86% and the Positive wells/wells tested is listed as 39%.
